{"source": "paper PMC9652372", "about": "“Glycolytic flux control by drugging phosphoglycolate phosphatase” (Nature Communications, 2022)", "key": {"HT1080 cells": {"tested_on": "HT1080 cells", "experiment": "NMR quantification of cellular metabolites", "format": "cell-based, human", "details": "T24: 24h CP1-treated, Exp #1-5", "quoted_text": "For NMR experiments, 2.7 million cells were seeded in 10 cm dishes for all samples. […] For each condition, six samples were prepared; one of which was used to count the number of cells at the end of the sample preparation. Free metabolites were obtained by methanol extraction: After washing the samples with ice-cold PBS, they were placed in liquid nitrogen for 2 min, followed by mixing the samples cooled on ice with 5 mL methanol. The samples were mixed for 15 min at 4 °C, and centrifuged at 2.5 × g for 30 min at 4 °C. The solvent was removed by evaporation with a N2 gas flow over 5 h on ice, followed by freeze-drying under vacuum. The remaining pellet was dissolved in 700 µL D2O, and transferred to a 5 mm borosilicate NMR tube. NMR experiments were performed with a BRUKER AVANCE NEO 600 spectrometer operating at 600.13 MHz for ^1H detection equipped with a cryogenic NMR probe offering enhanced sensitivity. The ^1H NMR spectra were acquired using a double watergate pulse sequence with excitation sculpting for water suppression. A relaxation delay of 4 s was sufficient. The π and π/2 pulses performed with a radio frequency power of 62.5 kHz were combined with 2 ms selective rectangular shape pulses optimized for efficient suppression of the H2O ^1H resonance, which was chosen as the transmitter frequency. The two blocks of gradient pulses were conducted over 1 ms per pulse using gradients of 0.155 T/m and 0.055 T/m with a smoothed rectangular shape profile (SMSQ10.100). Signal averaging was achieved over 512 scans using an acquisition time of 1.38 s. Acquisition and pre-processing of NMR spectra was performed under the control of a workstation with TopSpin 4.0.7. Data processing included Fourier transformation, zero order phase correction, 1 Hz line broadening using a Lorentzian window function and automatic baseline correction with a polynomial of fifth degree. A 9 mmol/L aqueous sucrose solution was used as a calibration compound to calibrate an ERETIC2 reference for absolute concentration determination[66],[67]. Based on the sucrose reference, an electronic signal was placed in each ^1H spectrum to calibrate the deconvolution software Chenomx NMR suite. A standard protocol for quantitative NMR was applied: The signal corresponding to the calibration compound was integrated and normalized according to the number of protons of this compound. The unknown concentration of compound x in the presence of the calibration compound was calculated according to: Cx=Ix/IcalNcal/NxCcal\nWith I, N, and C being the integral area, number of nuclei, or concentration of the calibration (cal) or the targeted compound (x), respectively. Due to spectral superposition, glycerol-3-phosphate could not be quantified in ^1H NMR spectra. Therefore, we conducted ^31P - ^1H HMBC 2D experiments and quantified glycerol-3-phosphate using the phosphorylcholine peak and the respective concentration known from ^1H NMR spectra. […] Three gradient pulses were used (sequence hmbcgpndqf) over 1 ms each with gradient strengths of 0.06 T/m, 0.06 T/m and 0.05 T/m. The relaxation delay was set to 2 s, the acquisition time to 0.328 s. […] Data processing was achieved as described above except for the Qsine window function in both dimensions. All measurements were performed at 7 °C."}, "murine PGP^C297S": {"target": "T1, murine PGP^C297S (Mus musculus, UniProt Q8CHP8, C297S)", "T1 construct": "His6 (N, cleaved yes); made in house; host or cells: Escherichia coli BL21 (DE3)", "T1 sequence (Q8CHP8 1-321 C297S)": "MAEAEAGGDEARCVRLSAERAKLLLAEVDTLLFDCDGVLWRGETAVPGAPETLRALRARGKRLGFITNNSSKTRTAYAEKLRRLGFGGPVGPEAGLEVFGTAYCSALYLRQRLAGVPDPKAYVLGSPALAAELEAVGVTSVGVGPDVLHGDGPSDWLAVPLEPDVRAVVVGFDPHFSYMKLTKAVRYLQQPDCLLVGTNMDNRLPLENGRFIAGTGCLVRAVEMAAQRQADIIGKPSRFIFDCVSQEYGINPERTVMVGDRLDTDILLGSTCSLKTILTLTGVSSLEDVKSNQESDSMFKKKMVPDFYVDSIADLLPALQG", "experiment": "IC50 determination, PGP^C297S, PG dephosphorylation", "format": "biochemical", "experimental": ". […] Data were analyzed with GraphPad Prism 7.04.\nSupplementary Figure 3 (related to Figure 2): Characterization of the homodimeric PGP variant PGPC297S. (a) In vitro phosphatase activity of purified murine PGPC297S in comparison to purified murine PGPWT, using 2- phosphoglycolate (PG) as substrate. (b) Determ ination of […]\nCP1. PG dephosphorylation was quantified using malachite green. All data in (a) and (b) are mean values ± S.E.M of n=3 independent experiments. Error bars not shown are hidden by the symbols. (c) PGP self-association in the absence or presence of CP1. Size- exclusion chromatography (SEC) of purified, recombinant murine PGP-WT in comparison to PGP-C297 […]\n(1 picture or pasted object on this page, not shown here)"}, "murine PGP": {"target": "T2, murine PGP (Mus musculus, UniProt Q8CHP8)", "T2 sequence (Q8CHP8 1-321)": "T1 sequence (Q8CHP8 1-321 C297S) with S297C", "experiment": "IC50 determination, murine PGP, 4-phosphoerythronate (4PE) dephosphorylation", "details": "for M.m PGP on 4-Phosphoerythronate: activity, control = 100"}}, "note": "Changes are numbered by the printed parent chain. Several values for one entry are separate records, joined by “and”; a condition that tells them apart may be missing. Equal values may be shown once."}
{"molecule": "O=C(Nc1ccccc1C(=O)O)c1ccc(Oc2ccc(C(=O)Nc3ccccc3C(=O)O)cc2)cc1", "note": "[CP1]", "values": [{"measurement": "Choline (NMR metabolite level)", "setting": "HT1080 cells", "result": "0.0001911 and 0.0002098 and 0.0002507 and 0.0002533 and 0.0003011"}, {"measurement": "Creatine (NMR metabolite level)", "setting": "HT1080 cells", "result": "0.005637 and 0.005968 and 0.005822 and 0.005673 and 0.00685"}, {"measurement": "Dimethylamine (NMR metabolite level)", "setting": "HT1080 cells", "result": "0.01722 and 0.009371 and 0.01178 and 0.009801 and 0.01006"}, {"measurement": "Fumaric acid (NMR metabolite level)", "setting": "HT1080 cells", "result": "0.0003583 and 0.0003497 and 0.0003621 and 0.0004052 and 0.0003764"}, {"measurement": "Glutathione (NMR metabolite level)", "setting": "HT1080 cells", "result": "0.00848 and 0.006947 and 0.009193 and 0.008991 and 0.00828"}, {"measurement": "Glycerol 3-phosphate (NMR metabolite level)", "setting": "HT1080 cells", "result": "0.005316 and 0.003498 and 0.00363 and 0.003634 and 0.003759"}, {"measurement": "Glycerophosphocholine (NMR metabolite level)", "setting": "HT1080 cells", "result": "0.0005972 and 0.0004662 and 0.000585 and 0.0005065 and 0.0006022"}, {"measurement": "Glycine (NMR metabolite level)", "setting": "HT1080 cells", "result": "0.01727 and 0.01921 and 0.02014 and 0.02011 and 0.0205"}, {"measurement": "L-Alanine (NMR metabolite level)", "setting": "HT1080 cells", "result": "0.006617 and 0.007063 and 0.007716 and 0.007015 and 0.00695"}, {"measurement": "L-Arginine (NMR metabolite level)", "setting": "HT1080 cells", "result": "0.002054 and 0.001585 and 0.002006 and 0.001975 and 0.001807"}, {"measurement": "L-Aspartic acid (NMR metabolite level)", "setting": "HT1080 cells", "result": "0.003296 and 0.003217 and 0.003844 and 0.003495 and 0.003463"}, {"measurement": "L-Glutamic acid (NMR metabolite level)", "setting": "HT1080 cells", "result": "0.03982 and 0.04634 and 0.04538 and 0.047 and 0.04456"}, {"measurement": "L-Glutamine (NMR metabolite level)", "setting": "HT1080 cells", "result": "0.05231 and 0.05105 and 0.05192 and 0.04586 and 0.05314"}, {"measurement": "L-Isoleucine (NMR metabolite level)", "setting": "HT1080 cells", "result": "0.007907 and 0.007716 and 0.008078 and 0.007775 and 0.007703"}, {"measurement": "L-Lactic acid (NMR metabolite level)", "setting": "HT1080 cells", "result": "0.08184 and 0.08616 and 0.0795 and 0.07679 and 0.07736"}, {"measurement": "L-Leucine (NMR metabolite level)", "setting": "HT1080 cells", "result": "0.00676 and 0.006597 and 0.007883 and 0.007192 and 0.007251"}, {"measurement": "L-Lysine (NMR metabolite level)", "setting": "HT1080 cells", "result": "0.002293 and 0.002238 and 0.002674 and 0.002431 and 0.002409"}, {"measurement": "L-Methionine (NMR metabolite level)", "setting": "HT1080 cells", "result": "0.002389 and 0.002331 and 0.002786 and 0.00276 and 0.002509"}, {"measurement": "L-Phenylalanine (NMR metabolite level)", "setting": "HT1080 cells", "result": "0.004013 and 0.003916 and 0.004123 and 0.003976 and 0.003889"}, {"measurement": "L-Threonine (NMR metabolite level)", "setting": "HT1080 cells", "result": "0.01522 and 0.01471 and 0.01638 and 0.01537 and 0.01478"}, {"measurement": "L-Tyrosine (NMR metabolite level)", "setting": "HT1080 cells", "result": "0.004491 and 0.004849 and 0.004652 and 0.004635 and 0.00424"}, {"measurement": "L-Valine (NMR metabolite level)", "setting": "HT1080 cells", "result": "0.007668 and 0.007693 and 0.007744 and 0.00775 and 0.007678"}, {"measurement": "N,N-Dimethylformamide (NMR metabolite level)", "setting": "HT1080 cells", "result": "0.0002389 and 0.0002331 and 0.0002786 and 0.0002533 and 0.0002509"}, {"measurement": "NAD+ (NMR metabolite level)", "setting": "HT1080 cells", "result": "0.002341 and 0.002611 and 0.002619 and 0.002533 and 0.002635"}, {"measurement": "NADH (NMR metabolite level)", "setting": "HT1080 cells", "result": "0.0002389 and 0.0002331 and 0.0003343 and 0.0002786 and 0.0002509"}, {"measurement": "Phosphocreatine (NMR metabolite level)", "setting": "HT1080 cells", "result": "0.001027 and 0.001002 and 0.001198 and 0.001165 and 0.001179"}, {"measurement": "Phosphorylcholine (NMR metabolite level)", "setting": "HT1080 cells", "result": "0.002054 and 0.002168 and 0.002256 and 0.002102 and 0.002158"}, {"measurement": "Pyroglutamate (NMR metabolite level)", "setting": "HT1080 cells", "result": "0.005255 and 0.004942 and 0.004596 and 0.005597 and 0.005796"}, {"measurement": "Pyruvate (NMR metabolite level)", "setting": "HT1080 cells", "result": "0.001983 and 0.001422 and 0.001532 and 0.001798 and 0.001932"}, {"measurement": "Serine (NMR metabolite level)", "setting": "HT1080 cells", "result": "0.005566 and 0.004965 and 0.004429 and 0.005901 and 0.004792"}, {"measurement": "Taurine (NMR metabolite level)", "setting": "HT1080 cells", "result": "0.00922 and 0.008998 and 0.009499 and 0.01099 and 0.01194"}, {"measurement": "Tryptophan (NMR metabolite level)", "setting": "HT1080 cells", "result": "0.0007883 and 0.0007693 and 0.0007243 and 0.0007851 and 0.0008029"}, {"measurement": "UDP-N-Acetylglucosamine (NMR metabolite level)", "setting": "HT1080 cells", "result": "0.003941 and 0.005105 and 0.006156 and 0.005242 and 0.005269"}, {"measurement": "UDP-glucose (NMR metabolite level)", "setting": "HT1080 cells", "result": "0.001935 and 0.001888 and 0.002981 and 0.002533 and 0.002559"}, {"measurement": "myo-Inositol (NMR metabolite level)", "setting": "HT1080 cells", "result": "0.007859 and 0.009021 and 0.01109 and 0.01281 and 0.00961"}, {"measurement": "IC50", "setting": "murine PGP^C297S; PGP^C297S, substrate PG", "result": "~0.25", "unit": "µM"}, {"measurement": "remaining activity at […]", "setting": "murine PGP^C297S; read-out: PGP-C297S activity in presence of CP1 relative to DMSO control, CP1 log[M] -5.60206", "result": 6.31, "unit": "%"}, {"measurement": "remaining activity at 1.25 µM", "setting": "murine PGP^C297S; read-out: PGP-C297S activity in presence of CP1 relative to DMSO control, CP1 log[M] -5.90309", "result": 12.6, "unit": "%"}, {"measurement": "remaining activity at 0.3125 µM", "setting": "murine PGP^C297S; read-out: PGP-C297S activity in presence of CP1 relative to DMSO control, CP1 log[M] -6.50515", "result": 44.1, "unit": "%"}, {"measurement": "remaining activity at 0.15625 µM", "setting": "murine PGP^C297S; read-out: PGP-C297S activity in presence of CP1 relative to DMSO control, CP1 log[M] -6.80618", "result": 56.8, "unit": "%"}, {"measurement": "remaining activity at 0.078125 µM", "setting": "murine PGP^C297S; read-out: PGP-C297S activity in presence of CP1 relative to DMSO control, CP1 log[M] -7.10721", "result": 72.1, "unit": "%"}, {"measurement": "remaining activity at 0.03906 µM", "setting": "murine PGP^C297S; read-out: PGP-C297S activity in presence of CP1 relative to DMSO control, CP1 log[M] -7.40824", "result": 75.7, "unit": "%"}, {"measurement": "remaining activity at 0.01953 µM", "setting": "murine PGP^C297S; read-out: PGP-C297S activity in presence of CP1 relative to DMSO control, CP1 log[M] -7.70927", "result": 90.1, "unit": "%"}, {"measurement": "IC50", "setting": "murine PGP", "result": "0.44 ± 0.06", "unit": "µM"}, {"measurement": "M.m PGP on 4-Phosphoerythronate", "setting": "murine PGP; CP1 log[M] -5.34679", "result": "4.5082 and 7.8838 and 6.1475"}, {"measurement": "M.m PGP on 4-Phosphoerythronate", "setting": "murine PGP; CP1 log[M] -5.94885", "result": "24.5902 and 29.0456 and 23.7705"}, {"measurement": "M.m PGP on 4-Phosphoerythronate", "setting": "murine PGP; CP1 log[M] -6.24988", "result": "43.8525 and 48.1328 and 39.3443"}, {"measurement": "M.m PGP on 4-Phosphoerythronate", "setting": "murine PGP; CP1 log[M] -6.55091", "result": "54.0984 and 64.3154 and 65.9836"}, {"measurement": "M.m PGP on 4-Phosphoerythronate", "setting": "murine PGP; CP1 log[M] -6.85194", "result": "70.4918 and 82.5726 and 78.6885"}]}
